Test results published in ChEMBL document CHEMBL1201862, “PubChem BioAssay data set” (2004).
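Five compound concentrations were applied to cells in 96-well plates for 48 hours; endpoints were derived by simple linear interpolation of the resulting dose-response curve. GI50: concentration for 50% inhibition of growth.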 Active and inactive are the calls of the source. Rule as the data show it: active = GI50 up to about 1.1 µM and inactive = higher.

How the values were obtained:
Test in all cases: NCI tumour cell line growth inhibition, 48 h
NCI/ADR-RES = test system: NCI/ADR-RES
MDA-N = test system: MDA-N
MCF7 = test system: MCF7
SNB-78 = test system: SNB-78
M19-MEL = test system: M19-MEL
KM-20L2 = test system: KM-20L2
HOP-18 = test system: HOP-18
LXFL 529 = test system: LXFL 529

Structure (SMILES)	GI50 (NCI/ADR-RES)	GI50 (MDA-N)	GI50 (MCF7)	GI50 (SNB-78)	GI50 (M19-MEL)	GI50 (KM-20L2)	GI50 (HOP-18)	GI50 (LXFL 529)
Cc1cc(O)c(C(C)C)cc1NC(=O)Nc1cccc2ccccc12	20.9 µM (inactive)	12.7 µM (inactive)	–	–	–	–	–	–
Cc1c(N2CCCC2)cc2c(c1NC(=O)c1ccccc1Cl)C(C)(C)CC2(C)C	13.4 µM (inactive)	13.9 µM (inactive)	13.8 µM (inactive)	–	–	–	–	–
NCC1CCCCC1.O=C(O)NCC1CCCCC1	26 µM (inactive)	15.9 µM (inactive)	–	–	–	–	–	–
CC(C)C(=O)C(C)(C)CCc1ccccn1	> 100 µM (inactive)	> 100 µM (inactive)	> 100 µM (inactive)	–	–	–	–	–
Nc1ccc2[nH]cc(CCC(=O)O)c2c1	> 100 µM (inactive)	> 100 µM (inactive)	> 100 µM (inactive)	–	–	–	–	–
Cc1nc(N)nc(S)c1CCC(=O)O	> 100 µM (inactive)	> 100 µM (inactive)	> 100 µM (inactive)	–	–	–	–	–
Cc1cc(Cl)ccc1OCC(=O)Nc1nc(N)nc(N)n1	> 100 µM (inactive)	> 100 µM (inactive)	> 100 µM (inactive)	–	–	–	–	–
C=CCCCC(C#N)(c1ccccc1)N1CCCC1 (configuration not stated)	–	–	–	> 100 µM (inactive)	> 100 µM (inactive)	> 100 µM (inactive)	–	–
C=C1CC2(CC(c3ccccc3Cl)OC(c3ccccc3Cl)C2)OC1=O (configuration not stated)	3.57 µM (inactive)	1.87 µM (inactive)	2.11 µM (inactive)	–	–	–	–	–
COc1cccc2c1C(=O)c1ccc3cc(CO)cc(O)c3c1C2=O	0.515 µM (active)	0.19 µM (active)	0.41 µM (active)	–	–	–	–	–
Cc1cc2cc3ccccc3cc2c(=O)[nH]1	–	> 10 µM (inactive)	> 10 µM (inactive)	–	–	–	–	–
COc1cc(C2SCC(=O)N2c2ccc(-n3c(-c4ccccc4)nc4ccccc4c3=O)cc2)ccc1O (configuration not stated)	34.3 µM (inactive)	> 100 µM (inactive)	70 µM (inactive)	–	–	–	–	–
Cc1cccc(C2=C/C(=C(\SS/C(C(=O)c3ccc(OCC(=O)O)c(Cl)c3Cl)=C3\C=C(c4cccc(C)c4)SS3)C(=O)c3ccc(OCC(=O)O)c(Cl)c3Cl)SS2)c1	–	–	–	15.6 µM (inactive)	19.1 µM (inactive)	47.1 µM (inactive)	12.8 µM (inactive)	–
N#CC(C#N)=C1NC(=O)CC(=O)N1	–	–	–	> 100 µM (inactive)	> 100 µM (inactive)	> 100 µM (inactive)	–	> 100 µM (inactive)
CC1OC(OC2C(OC(=O)[C@]34CCC(C)(C)C[C@H]3C3=CC[C@@H]5[C@@]6(C)CC[C@H](OC7OC(C(=O)O)C(O)C(O)C7O)C(C)(C)[C@@H]6CC[C@@]5(C)[C@]3(C)C[C@H]4O)OCC(O)C2O)C(O)C(OC2OCC(O)(CO)C2O)C1OC1OCC(O)C(O)C1O (some centres not stated)	13.3 µM (inactive)	4.31 µM (inactive)	6.17 µM (inactive)	–	–	–	–	–
COc1cc2c(cc1OC)C(=O)N(c1ccc(OCCN3CCCC3)cc1)C2=O	> 100 µM (inactive)	> 100 µM (inactive)	> 100 µM (inactive)	–	–	–	–	–

Structure (SMILES)	GI50 (NCI/ADR-RES)	GI50 (MDA-N)	GI50 (MCF7)	GI50 (SNB-78)	GI50 (M19-MEL)	GI50 (KM-20L2)	GI50 (HOP-18)	GI50 (LXFL 529)
Nc1nc(N)c2c(-c3ccccc3)ccnc2n1	–	> 100 µM (inactive)	> 100 µM (inactive)	–	–	–	–	–
CSC(=N)N1N=C2c3ccccc3CC[C@@H]2[C@@H]1c1ccccc1	–	–	–	–	15.9 µM (inactive)	12 µM (inactive)	18.5 µM (inactive)	11.5 µM (inactive)
NNC(=S)N1CCN(C(=S)NN)CC1	–	> 100 µM (inactive)	–	–	–	–	–	–
O=C(OCc1ccccc1CN1CCOCC1)c1cccc(Br)c1	26.7 µM (inactive)	–	37 µM (inactive)	–	–	–	–	–
COc1ccc(/C=C/C(C(=O)O)C(=O)O)cc1	–	–	–	48.1 µM (inactive)	61.8 µM (inactive)	91.6 µM (inactive)	–	36.4 µM (inactive)
CCCCCCCCCCCCc1ccsc1-c1ccc(-c2ccc(-c3sc(-c4cc(CCCCCCCCCCCC)c(-c5ccc(-c6ccc(-c7sccc7CCCCCCCCCCCC)s6)s5)s4)cc3CCCCCCCCCCCC)s2)s1	> 100 µM (inactive)	–	> 100 µM (inactive)	–	–	–	–	–
O=P(O)(O)CN1CCNCCN(CP(=O)(O)O)CC1	> 19.9 µM (inactive)	13.6 µM (inactive)	8.79 µM (inactive)	–	–	–	–	–
C[C@@H](CO)OCOCc1ccccc1	–	–	–	> 100 µM (inactive)	> 100 µM (inactive)	–	–	> 100 µM (inactive)
NNC(=O)N/N=C1\CNC(=O)C(=O)C1c1nc2ccccc2s1 (configuration not stated)	–	–	–	> 100 µM (inactive)	> 100 µM (inactive)	> 100 µM (inactive)	–	> 100 µM (inactive)
CC(C)NC(=O)OCc1c(COC(=O)NC(C)C)n(C)c2c1ccc1cc(Cl)c(Cl)cc12	15.9 µM (inactive)	13.6 µM (inactive)	3.28 µM (inactive)	–	–	–	–	–
Nc1ccccc1N/C(=C\C(=O)C(Cl)(Cl)Cl)c1ccccc1	29.2 µM (inactive)	18.1 µM (inactive)	23.7 µM (inactive)	–	–	–	–	–
c1ccc2c(c1)nc1n2C2CCC(C2)N1 (configuration not stated)	> 10 µM (inactive)	> 10 µM (inactive)	> 10 µM (inactive)	–	–	–	–	–
CCC(=N\NC(N)=S)/C(C)=N/O	> 100 µM (inactive)	> 100 µM (inactive)	> 100 µM (inactive)	–	–	–	–	–
c1ccc2c(c1)CCN1CCc3ccccc3C1C2 (configuration not stated)	65.9 µM (inactive)	12.4 µM (inactive)	> 100 µM (inactive)	–	–	–	–	–
Cc1cccc(C)c1NC(=O)CCCC(=O)C(C#N)c1ccc(Cl)cc1 (configuration not stated)	–	–	–	> 100 µM (inactive)	> 100 µM (inactive)	> 100 µM (inactive)	> 100 µM (inactive)	> 100 µM (inactive)
